Assay results reported in US4496545A, “Nonapeptide for treating addictive drug withdrawal conditions” (priority 1981, dated 1985).
Where no end group is shown, it is not given here.

Legend:
dogs [1] = conditions: dog, in vivo
Protocol: (§1) Toxicological studies were carried out on 12 male and 12 female rats as well as on 3 male and 3 female dogs per dosage. For this purpose DSIP was dissolved in physiological sodium chloride solution and administered intravenously daily for 4 weeks in the dosages of 0.6, 1.8 and 6 mg/kg. At an interval of 2 weeks during these studies the hematological, hematochemical and the urine status were determined, and the electrocardiogram was recorded and analyzed.
(§2) At the termination of the aforementioned studies all animals were painlessly killed and there followed the autopsy besides the removal of organ samples for histological investigations.

rats [2] = conditions: rat, in vivo
Protocol: as §1, §2

dogs [3] = experiment: Toxicological study, daily intravenous administration for 4 weeks, dogs; conditions: maximum dosage (6 mg/kg i.v. daily for 4 weeks)
Protocol: as §1, §2

[4] = tested on: alcoholic or methadone- or heroin-dependent patients; conditions: human, in vivo
Protocol: Of the 25 alcoholic patients 8 were on admission already in delirium tremens to a medium to severe degrees. After the first subjective and objective withdrawal signs manifested themselves the patients received up to 4 intravenous infusions of in each case 0.0214 mg/kg of DSIP daily. For this purpose, the substance was dissolved in physiological sodium chloride solution and infused in the course of 5 minutes.
The duration of treatment amounted to a maximum of 3 days.

rats [5] = experiment: Toxicological study, daily intravenous administration for 4 weeks, rats; conditions: maximum dosage (6 mg/kg i.v. daily for 4 weeks)
Protocol: as §1, §2

morphine-dependent mouse = experiment: Inhibition of the naloxone-triggered withdrawal leaps of the morphine-dependent mouse; format: in vivo; conditions: 30 mg/kg s.c. 30 minutes before naloxone; median leaps vs NaCl control
Excerpt: An opiate-dependent organism for example reacts the same irrespective of species on the sudden withdrawal of the opiate (e.g. morphine) with withdrawal symptoms, i.e. addictive drug withdrawal conditions. In the course of this occurrence central and peripheral symptoms appear, of which the most striking in the mouse is a series of violent leaps (the so-called "jumping"). The number of leaps per time interval is proportional to the intensity of the withdrawal effect and their enumeration enables the incident to be evaluated quantitatively.
In order to produce the dependence a compressed tablet, which contained 75 mg of morphine (base) and which progressively dissolved with continuous liberation of the morphine, was implanted under the dorsal skin of male mice (weight about 22 g). On the third day after the implantation the morphine antagonist naloxone in a dosage of 0.1 mg/kg was administered subcutaneously to the animals in order to trigger off the withdrawal leaps.
After the injection, the leaps of each individual animal were counted for 20 minutes. The group median value was calculated from the total leaps of 8 animals, which formed a group. […] The dosage median values and, respectively, control median values were calculated from all individual values per dosage and, respectively, the positive and negative controls.

Compound	Tolerability of the dosages (dogs [1])	Tolerability of the dosages (rats [2])	Electrocardiogram (dogs [3])	Tolerance of DSIP: poor [4]	Electrocardiogram (rats [5])	% of negative control (morphine-dependent mouse)
WAGGDASGE [DSIP, Trp-Ala-Gly-Gly-Asp-Ala-Ser-Gly-Glu]	tolerated without any side effects	tolerated without any side effects	no changes in the electrocardiogram	2 patients	no changes in the electrocardiogram	
CN1CC[C@]23c4c5ccc(O)c4O[C@H]2[C@@H](O)C=C[C@H]3[C@H]1C5 [Morphine]						27%
